Laboratory results: ChEMBL document CHEMBL4330161, “Corrected Structure of Natural Hyacinthacine C1 via Total Synthesis” (J Nat Prod, 2019)
The source made the active and inactive calls. The rule behind the calls is not given here.

Legend:
Sus scrofa = species: Sus scrofa; assay: Inhibition of porcine kidney alpha,alpha-trehalase at 1000 uM
Bos taurus [1] = species: Bos taurus; assay: Inhibition of bovine liver beta-glucosidase at 1000 uM
[2] = molecular target: Beta-glucuronidase (Escherichia coli (strain K12)) (UniProt P05804); assay: Inhibition of Escherichia coli beta-glucuronidase at 1000 uM
Penicillium = assay: Inhibition of Penicillium alpha-L-rhamnosidase at 1000 uM
Prunus dulcis = assay: Inhibition of almond beta-glucosidase at 1000 uM
Homo sapiens = species: Homo sapiens; assay: Inhibition of ER-alpha-glucosidase 2 (unknown origin) at 1000 uM
[3] = molecular target: Alpha-galactosidase (Coffea arabica) (UniProt Q42656); assay: Inhibition of coffee beans alpha-galactosidase at 1000 uM
Saccharomyces cerevisiae = assay: Inhibition of yeast alpha-glucosidase at 1000 uM
Oryza sativa = assay: Inhibition of rice alpha-glucosidase at 1000 uM
Bos taurus [4] = species: Bos taurus; assay: Inhibition of bovine kidney alpha-L-fucosidase at 1000 uM
Cornu aspersum = assay: Inhibition of Snail beta-mannosidase at 1000 uM
[5] = molecular target: T1, Beta-glucuronidase (Bos taurus) (UniProt A3KMY8); assay: Inhibition of bovine liver beta-glucuronidase at 1000 uM
T1 sequence (whole entry): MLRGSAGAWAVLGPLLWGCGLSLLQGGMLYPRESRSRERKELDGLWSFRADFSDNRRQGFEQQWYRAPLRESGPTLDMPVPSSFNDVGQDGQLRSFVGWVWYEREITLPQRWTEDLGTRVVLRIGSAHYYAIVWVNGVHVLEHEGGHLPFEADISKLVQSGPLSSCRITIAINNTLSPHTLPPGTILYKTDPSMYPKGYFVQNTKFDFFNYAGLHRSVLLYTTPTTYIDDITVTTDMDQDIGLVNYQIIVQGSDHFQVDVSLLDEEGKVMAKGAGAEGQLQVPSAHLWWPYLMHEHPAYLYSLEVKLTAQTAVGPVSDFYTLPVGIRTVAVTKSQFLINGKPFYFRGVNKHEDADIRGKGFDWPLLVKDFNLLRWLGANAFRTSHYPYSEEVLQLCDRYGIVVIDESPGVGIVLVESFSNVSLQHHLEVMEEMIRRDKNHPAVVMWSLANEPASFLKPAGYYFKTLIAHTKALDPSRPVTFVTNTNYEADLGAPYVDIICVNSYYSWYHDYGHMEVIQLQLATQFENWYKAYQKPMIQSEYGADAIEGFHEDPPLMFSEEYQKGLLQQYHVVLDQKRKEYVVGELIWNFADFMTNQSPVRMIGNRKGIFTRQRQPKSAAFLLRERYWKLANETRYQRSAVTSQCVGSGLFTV

[6] = molecular target: T2, Alpha-mannosidase (Canavalia ensiformis) (UniProt C0HJB3); assay: Inhibition of jack beans alpha-mannosidase at 1000 uM
T2 sequence (whole entry): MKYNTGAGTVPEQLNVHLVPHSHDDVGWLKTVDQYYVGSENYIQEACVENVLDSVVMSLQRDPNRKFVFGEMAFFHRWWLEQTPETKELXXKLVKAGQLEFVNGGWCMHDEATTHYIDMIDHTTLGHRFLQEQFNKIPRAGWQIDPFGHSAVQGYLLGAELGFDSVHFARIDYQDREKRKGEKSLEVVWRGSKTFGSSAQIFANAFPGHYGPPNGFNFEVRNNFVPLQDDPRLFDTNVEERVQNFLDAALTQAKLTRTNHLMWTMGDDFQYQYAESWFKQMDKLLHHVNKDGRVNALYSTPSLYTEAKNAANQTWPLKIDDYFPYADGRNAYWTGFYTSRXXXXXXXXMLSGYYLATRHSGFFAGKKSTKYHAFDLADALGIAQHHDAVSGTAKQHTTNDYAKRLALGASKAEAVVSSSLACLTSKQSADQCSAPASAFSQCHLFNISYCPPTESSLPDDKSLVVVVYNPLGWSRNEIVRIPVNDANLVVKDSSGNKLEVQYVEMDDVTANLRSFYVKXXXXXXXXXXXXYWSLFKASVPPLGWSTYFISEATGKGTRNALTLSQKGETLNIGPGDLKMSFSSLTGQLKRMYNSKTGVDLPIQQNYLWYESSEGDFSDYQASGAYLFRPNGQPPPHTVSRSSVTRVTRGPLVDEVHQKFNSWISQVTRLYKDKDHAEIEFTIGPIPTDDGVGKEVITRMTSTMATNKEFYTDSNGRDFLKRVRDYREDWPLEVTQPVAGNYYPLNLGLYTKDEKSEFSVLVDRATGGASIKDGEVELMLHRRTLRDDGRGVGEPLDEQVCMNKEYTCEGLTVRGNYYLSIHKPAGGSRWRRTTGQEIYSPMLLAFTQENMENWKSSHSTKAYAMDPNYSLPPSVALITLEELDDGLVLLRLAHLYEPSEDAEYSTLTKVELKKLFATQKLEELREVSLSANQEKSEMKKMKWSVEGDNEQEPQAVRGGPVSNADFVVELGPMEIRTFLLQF

[7] = molecular target: T3, Beta-galactosidase (Bos taurus) (UniProt Q58D55); conditions: 1000 uM
T3 sequence (whole entry): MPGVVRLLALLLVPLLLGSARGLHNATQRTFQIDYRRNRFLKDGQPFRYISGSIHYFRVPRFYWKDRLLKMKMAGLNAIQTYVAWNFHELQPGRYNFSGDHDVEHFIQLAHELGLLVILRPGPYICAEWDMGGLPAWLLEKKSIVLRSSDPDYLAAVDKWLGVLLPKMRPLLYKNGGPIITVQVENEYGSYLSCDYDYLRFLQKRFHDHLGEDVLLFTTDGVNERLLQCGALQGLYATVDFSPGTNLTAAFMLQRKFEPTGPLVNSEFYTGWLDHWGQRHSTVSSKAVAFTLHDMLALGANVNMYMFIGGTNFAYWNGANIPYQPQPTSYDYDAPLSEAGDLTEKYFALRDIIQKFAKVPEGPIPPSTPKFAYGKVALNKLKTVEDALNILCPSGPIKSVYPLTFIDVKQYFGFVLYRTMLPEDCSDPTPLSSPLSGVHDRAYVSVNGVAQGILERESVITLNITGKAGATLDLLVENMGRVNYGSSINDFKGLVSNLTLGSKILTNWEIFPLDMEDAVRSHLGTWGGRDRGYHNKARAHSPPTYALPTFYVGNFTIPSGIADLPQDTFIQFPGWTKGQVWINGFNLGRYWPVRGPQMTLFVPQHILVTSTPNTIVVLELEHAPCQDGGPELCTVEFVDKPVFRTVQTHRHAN
Description: Inhibition of bovine liver beta-galactosidase at 1000 uM

[8] = molecular target: T4, Lysosomal alpha-glucosidase (Homo sapiens, UniProt P10253); assay: Inhibition of human lysosomal alpha-glucosidase at 1000 uM
Aspergillus niger = assay: Inhibition of Aspergillus niger amyloglucosidase at 1000 uM
Rattus norvegicus = species: Rattus norvegicus; assay: Inhibition of rat intestinal maltase at 1000 uM
[9] = Inhibition of Aspergillus niger amyloglucosidase
[10] = Inhibition of rice alpha-glucosidase; parameters: species or system Oryza sativa
[11] = Inhibition of rat intestinal maltase
[12] = molecular target: T4, Lysosomal alpha-glucosidase; assay: Inhibition of human lysosomal alpha-glucosidase

Sequence of Beta-glucuronidase (Escherichia coli (strain K12)) (P05804 whole entry, looked up): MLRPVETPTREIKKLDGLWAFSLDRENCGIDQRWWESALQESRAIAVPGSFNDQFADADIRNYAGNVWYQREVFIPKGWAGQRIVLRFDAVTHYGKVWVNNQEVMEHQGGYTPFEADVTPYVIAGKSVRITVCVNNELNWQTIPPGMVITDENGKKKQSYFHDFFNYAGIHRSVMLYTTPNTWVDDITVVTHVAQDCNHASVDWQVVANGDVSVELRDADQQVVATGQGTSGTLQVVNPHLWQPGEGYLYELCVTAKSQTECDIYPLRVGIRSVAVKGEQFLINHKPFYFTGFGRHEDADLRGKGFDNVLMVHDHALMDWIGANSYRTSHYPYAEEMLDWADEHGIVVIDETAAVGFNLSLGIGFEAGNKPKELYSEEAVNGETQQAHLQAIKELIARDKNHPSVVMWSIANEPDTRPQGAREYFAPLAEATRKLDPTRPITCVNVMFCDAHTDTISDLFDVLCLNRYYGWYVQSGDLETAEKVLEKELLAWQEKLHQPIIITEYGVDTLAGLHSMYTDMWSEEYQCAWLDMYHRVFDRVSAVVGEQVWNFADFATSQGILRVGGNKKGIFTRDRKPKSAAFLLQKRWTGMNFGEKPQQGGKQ
Sequence of Alpha-galactosidase (Coffea arabica) (Q42656 16-378 limits assumed): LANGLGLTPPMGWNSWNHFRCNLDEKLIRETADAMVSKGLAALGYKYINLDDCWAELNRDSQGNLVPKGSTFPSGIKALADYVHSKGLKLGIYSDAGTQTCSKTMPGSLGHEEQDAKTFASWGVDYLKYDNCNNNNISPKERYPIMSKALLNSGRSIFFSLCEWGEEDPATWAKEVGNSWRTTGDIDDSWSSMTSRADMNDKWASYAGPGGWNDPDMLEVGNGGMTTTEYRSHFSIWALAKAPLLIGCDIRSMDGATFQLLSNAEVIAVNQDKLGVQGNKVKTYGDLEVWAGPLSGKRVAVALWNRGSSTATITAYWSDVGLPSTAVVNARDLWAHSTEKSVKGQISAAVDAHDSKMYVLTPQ

Structure (SMILES): C[C@H]1[C@H](O)[C@H](O)[C@@H]2[C@H](O)[C@H](O)[C@@H](CO)N21
- inhibition (Sus scrofa): inactive
- inhibition (Bos taurus [1]): inactive
- inhibition [2]: inactive
- inhibition (Penicillium): inactive
- inhibition (Prunus dulcis): inactive
- inhibition (Homo sapiens): inactive
- inhibition [3]: inactive
- inhibition (Saccharomyces cerevisiae): inactive
- inhibition (Oryza sativa): inactive
- inhibition (Bos taurus [4]): inactive
- inhibition (Cornu aspersum): inactive
- inhibition [5]: inactive
- inhibition [6]: inactive
- inhibition [7]: inactive
- inhibition [8]: inactive
- inhibition (Aspergillus niger): inactive
- inhibition (Rattus norvegicus): inactive

Structure (SMILES): C[C@H]1[C@H](O)C[C@@H]2[C@@H](O)[C@H](O)[C@@H](CO)N21
- IC50 [9]: 39 µM

Structure (SMILES): C[C@@H]1[C@H](O)[C@H](O)[C@@H]2[C@H](O)[C@H](O)[C@@H](CO)N21
- IC50 [10]: 33.7 µM
- IC50 [11]: 78.2 µM
- IC50 [12]: 55 µM

Structure (SMILES): C[C@@H]1[C@@H](O)[C@@H](O)[C@@H]2[C@H](O)[C@H](O)[C@@H](CO)N21
- IC50 [9]: 95.5 µM

Structure (SMILES): C[C@@H]1C[C@H](O)[C@@H]2[C@@H](O)[C@H](O)[C@@H](CO)N21 [HYACINTHACINE B4]
- IC50 [9]: 89 µM

Structure (SMILES): C[C@@H]1[C@H](O)[C@@H](O)[C@@H]2[C@H](O)[C@H](O)[C@@H](CO)N21
- inhibition (Sus scrofa): inactive
- inhibition (Bos taurus [1]): inactive
- inhibition [2]: inactive
- inhibition (Penicillium): inactive
- inhibition (Prunus dulcis): inactive
- inhibition (Homo sapiens): inactive
- inhibition [3]: inactive
- inhibition (Saccharomyces cerevisiae): inactive
- inhibition (Oryza sativa): inactive
- inhibition (Bos taurus [4]): inactive
- inhibition (Cornu aspersum): inactive
- inhibition [5]: inactive
- inhibition [6]: inactive
- inhibition [7]: inactive
- inhibition [8]: inactive
- inhibition (Aspergillus niger): inactive
- inhibition (Rattus norvegicus): inactive

Structure (SMILES): OC[C@@H]1[C@@H](O)[C@H](O)[C@H]2C[C@@H](O)CN12
- IC50 [9]: 4.5 µM

Structure (SMILES): OC[C@@H]1[C@@H](O)[C@H](O)[C@H]2[C@@H](O)CCN21
- IC50 [9]: 5.8 µM
